Measurements published in article PMC12562155, “Interference-Free Measurement of Urinary Angiotensin-Converting Enzyme (ACE) Activity: Diagnostic and Therapeutic Monitoring Implications” (Biomedicines, 2025).
Where a name gives a salt, the structure may show the parent alone. Residues, ends and D or L forms follow the SMILES beside them. *: point of attachment. Cbz = O=C(OCc1ccccc1)*

Experiments:
Format in all cases: biochemical
[1] = target: T1, urinary angiotensin-converting enzyme (uACE) (Homo sapiens, UniProt P12821); test: Fluorescent kinetic uACE activity assay with ACE-specific inhibitors and inhibitors of other proteases (sensitivity testing); details: for effect on measured uACE activity: peptidase inhibitors, inhibitor-free 10 kDa retentate
T1 construct: from tissue; host or cells: human urine (native, or retentate of 10 kDa / 30 kDa Vivaspin 20 membrane filters)

[2] = target: T1, urinary angiotensin-converting enzyme (uACE); test: Fluorescent kinetic ACE activity assay on inhibitor-free ACE purified from urine (30 kDa retentate) with potential endogenous inhibitors; details: for uACE inhibition within reference (physiological) urinary concentration range: ACE purified from urine, physiological concentration range of the molecule in urine; for IC50: ACE purified from urine (30 kDa retentate), two-phase decay fit
Method: (§1) ACE activity was measured using the optimized fluorescent kinetic method previously reported by our group with different sample dilutions for each experiment.
In the final dilutional protocol, the reaction mixture contained 100 mM tris(hydroxymethyl)aminomethane hydrochloride (TRIS) buffer (pH 7.0), 15 μM Abz-FRK(Dnp)P-OH substrate (synthesized by Peptide 2.0, Chantilly, VA, USA), 50 mM NaCl, 10 μM ZnCl2, and urine at 64-fold and 128-fold final dilutions. […] Continuous recording of fluorescent intensity change was performed for 90 min with 1-min measurement intervals at 37 °C. Data points between 20 min and 80 min were used for analysis. When activity measured at 64-fold dilution exceeded that measured at 128-fold, the 64-fold results were used to avoid over-dilution bias of dilute urine samples.
Inhibitor-free ACE pre-purified on a 30 kDa Vivaspin 20 membrane filter column was used to identify inhibitors. Potential inhibitors were dissolved according to factory instructions (Urea: Cat. No.: U6504-1KG; Sigma-Aldrich, St. Louis, MO, USA; Uric acid: Cat. No.: U2625-25G; Sigma-Aldrich, St. Louis, MO, USA; Urobilinogen: Cat. No: 651-10; Lee Biosolutions, Maryland Heights, MO, USA). In the corresponding experiments, uACE with activities ranging from 0.15 to 0.53 U/L was applied. The obtained curves were fitted using the ‘two-phase decay’ equation in GraphPad Prism software, version 9 (GraphPad Software Inc., San Diego, CA, USA).

serum ACE = target: T2, serum ACE (Homo sapiens, UniProt P12821); test: Serum ACE activity in the presence of phosphoramidon; details: compared with effect on uACE
T2 construct: from tissue; host or cells: serum
Method: as §1

T1 sequence (P12821 30-1232 limits assumed): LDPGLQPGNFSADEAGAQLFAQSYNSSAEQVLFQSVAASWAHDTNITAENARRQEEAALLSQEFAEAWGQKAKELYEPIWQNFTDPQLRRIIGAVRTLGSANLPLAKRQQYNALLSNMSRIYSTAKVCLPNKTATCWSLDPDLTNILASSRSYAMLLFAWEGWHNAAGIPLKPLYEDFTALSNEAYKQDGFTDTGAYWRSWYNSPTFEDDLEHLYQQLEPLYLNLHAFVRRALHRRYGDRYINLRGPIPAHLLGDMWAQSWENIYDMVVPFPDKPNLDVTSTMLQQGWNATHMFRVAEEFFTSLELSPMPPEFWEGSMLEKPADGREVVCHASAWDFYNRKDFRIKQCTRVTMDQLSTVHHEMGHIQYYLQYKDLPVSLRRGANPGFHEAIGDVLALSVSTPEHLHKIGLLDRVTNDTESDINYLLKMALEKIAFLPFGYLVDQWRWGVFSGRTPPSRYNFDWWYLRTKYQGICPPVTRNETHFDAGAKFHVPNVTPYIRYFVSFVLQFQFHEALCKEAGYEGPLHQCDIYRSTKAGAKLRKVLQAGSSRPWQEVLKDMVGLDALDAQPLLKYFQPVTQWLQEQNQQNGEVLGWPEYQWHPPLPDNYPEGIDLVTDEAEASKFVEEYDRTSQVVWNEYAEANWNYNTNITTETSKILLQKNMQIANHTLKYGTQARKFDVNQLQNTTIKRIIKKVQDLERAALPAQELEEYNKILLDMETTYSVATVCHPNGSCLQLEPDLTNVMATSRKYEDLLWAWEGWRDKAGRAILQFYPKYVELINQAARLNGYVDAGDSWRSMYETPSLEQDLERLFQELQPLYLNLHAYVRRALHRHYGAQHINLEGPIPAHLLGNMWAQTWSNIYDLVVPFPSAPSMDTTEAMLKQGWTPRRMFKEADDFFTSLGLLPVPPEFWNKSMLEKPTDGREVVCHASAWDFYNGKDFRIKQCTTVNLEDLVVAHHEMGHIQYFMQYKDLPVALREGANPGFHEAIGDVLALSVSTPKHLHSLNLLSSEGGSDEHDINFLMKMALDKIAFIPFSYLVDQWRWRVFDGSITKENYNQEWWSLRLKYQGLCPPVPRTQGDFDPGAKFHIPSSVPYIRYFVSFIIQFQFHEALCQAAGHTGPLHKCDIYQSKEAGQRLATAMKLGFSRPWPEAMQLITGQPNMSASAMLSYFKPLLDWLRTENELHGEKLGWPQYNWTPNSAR
T2 sequence (P12821 30-1232 limits assumed): as above

Row | Compound | effect on measured uACE activity [1] | uACE inhibition within reference (physiological) urinary concentration range [2] | further results
1 | CC(C)C[C@@H](N)[C@H](O)C(=O)N[C@H](C(=O)N[C@H](C(=O)N[C@@H](CC(=O)O)C(=O)O)C(C)C)C(C)C.Cl [Amastatin hydrochloride] | had no effect | – | –
2 | O=c1[nH]c(=O)c2[nH]c(=O)[nH]c2[nH]1 [Uric acid] | – | 30–50% | IC50 [2]: 3610 µM
3 | O=C[C@@H]1CCCN1C(=O)[C@@H]1CCCN1C(=O)OCc1ccccc1 [Z-prolyl-prolinal] (Cbz-Pro-Pro-aldehyde) | no detectable effect | – | –
4 | NCCCC[C@H](N[C@@H](CCc1ccccc1)C(=O)O)C(=O)N1CCC[C@H]1C(=O)O [lisinopril] | – | – | inhibition of ACE activity in control reactions ([1]; 1 μM): completely inhibiting ACE activity; extent of uACE activity inhibition ([1]; ACE-inhibitor drugs, concentration series): completely inhibited
5 | CC(C)C[C@H](NP(=O)(O)O[C@@H]1O[C@@H](C)[C@H](O)[C@@H](O)[C@H]1O)C(=O)N[C@@H](Cc1c[nH]c2ccccc12)C(=O)O [phosphoramidon disodium salt, Phosphoramidon disodium salt] | – | – | effect on serum ACE activity (serum ACE): comparable inhibitory effect; reduction of uACE activity ([1]; 1 μM concentration): approximately 35%

Continued, in another order:

Row | effect on measured uACE activity [1] | uACE inhibition within reference (physiological) urinary concentration range [2] | Compound | further results
6 | had no effect | – | CC(C)C[C@H](N[C@@H](Cc1cncn1Cc1cc(Cl)cc(Cl)c1)C(=O)O)C(=O)O [MLN-4760] | –
7 | – | 10–25% | NC(N)=O [Urea] | –
8 | – | 3–20% | CCC1=C(C)C(Cc2[nH]c(Cc3[nH]c(CC4NC(=O)C(C)=C4CC)c(C)c3CCC(=O)O)c(CCC(=O)O)c2C)NC1=O (stereo not drawn) [Urobilinogen] | IC50 [2]: 298 µM; IC50 ([2]; listed as urobilinogen): 298 µM
9 | did not alter uACE activity | – | C[C@H](NC(=O)[C@@H]1CCCN1C(=O)[C@@H]1CCCN1C(=O)[C@@H](O)[C@H](N)Cc1ccccc1)C(N)=O [apstatin, Apstatin] | –
10 | did not alter uACE activity | – | CC(C)C[C@H](NC(=O)[C@@H](O)[C@H](N)Cc1ccccc1)C(=O)O [bestatin hydrochloride, Bestatin hydrochloride] | –
